Measurements published in patent publication US4908363A, “Imidazole derivatives” (Hoffmann-La Roche Inc., priority 1987, dated 1990).

Key:
[1] = Inflammation-inhibiting activity in established Mycobacterium butyricum arthritis (paw volume, plasma fibrinogen, body weight); assay type: in vivo, male rats; conditions: by intubation each day over 7 days; for Paw volume change: vehicle 0.46 ± 0.08; for Body weight change: vehicle 13.2 ± 1.8; for Plasma Fibrinogen: vehicle 1233 ± 56
Protocol: Representative compounds of formula I were tested for their inflammation-inhibiting properties in the animal test described hereinafter:
0.1 ml of a 0.5% (weight/volume) suspension of heat-killed and dried Mycobacterium butyricum in heavy mineral oil, containing 0.2% digitionin, is injected into the base of the tail of male rats (120-140 g). The animals are housed individually and receive feed and water ad libitum. The thus-produced arthritis is allowed to develop without treatment during 21 days. Then on the one hand the body weight of the animals is determined and on the other hand the volumes of their two hind paws (by immersing the paws in a mercury plethysmograph up to the height of the lateral malleolus). Thereupon, the animals are divided into groups each comprising six animals in each case of approximately the same average volumes of the hind paws. The substance to be investigated is then administered to them by intubation each day over a period of 7 days. At the end of the treatment period, body weight and volumes of the hind paws are again determined and the changes over the treatment period is calculated. Subsequently, the animals are killed and plasma samples are removed from them in order to determine the fibrinogen in accordance with Exner et al., 1979 (Amer. J. Clin. Path.) after precipitation with ammonium sulfate.
The results determined for three representative compounds of formula I, in the animal test described hereinbefore, are set forth in the following Table I.

[2] = Acute toxicity, single oral administration; conditions: mouse, in vivo; single oral administration to mice
Text: The following Table II contains data concerning the acute toxicity of the above three compounds (LD50 in the case of single oral administration to mice).

[3] = Edema-inhibiting properties in carrageen pleuritis; assay type: in vivo, male rats; conditions: 1 hour before and 5 hours after carrageen, 24 hours
Protocol: were tested for their edema-inhibiting properties in the animal test described hereinafter:
A pleuritis is produced in male rats (230-250 g), which receive feed and water ad libitum, by the injection of 0.2 ml of a 1% solution of carrageen in sterile, pyrogen-free sodium chloride solution into the right pleural cavity. The substance to be investigated, suspended in an aqueous vehicle (containing 0.5% carboxymethylcellulose, 0.9% sodium chloride, 0.37% Tween 80 and 0.86% benzyl alcohol), or the vehicle alone, are administered by intubation to the animals 1 hour before and 5 hours after the carrageen injection. Twenty-four (24) hours after the carrageen injection, the animals are killed by decapitation, left to bleed out and the pleural cavity is exposed by cutting through the ribs on both sides of the sternum. The exudate is removed from the pleural cavity by means of a pipette and its volume is determined. Thereupon, the pleural cavity is washed once with phosphate-buffered sodium chloride solution containing fetal bovine serum (1:1) and the wash solution is combined with the exudate. The total number of cells in the pleural cavity is determined using a "Coulter Counter" which is calibrated so that red blood corpuscles are not counted. Cell smears on glass plates can be produced directly from the exudate, fixed in methanol and colored for the differential counting of polymorphonuclear leucocytes (PMN) and macrophages; a total of 200 PMN and macrophages can be counted and the results expressed as a percentage of each type of cell present in the pleural exudate.

| Compound | Paw volume change ([1]; 22 μmol/kg) | Body weight change ([1]; 22 μmol/kg) | Plasma Fibrinogen ([1]; 22 μmol/kg) | Paw volume change ([1]; 66 μmol/kg) | Body weight change ([1]; 66 μmol/kg) | Plasma Fibrinogen ([1]; 66 μmol/kg) | LD50 [2] | % Chance compared with controls, Exudate volume ([3]; 30 mg/kg p.o.) | % Chance compared with controls, Number of cells ([3]; 30 mg/kg p.o.) | % Chance compared with controls, Exudate volume ([3]; 100 mg/kg p.o.) | % Chance compared with controls, Number of cells ([3]; 100 mg/kg p.o.) | % Chance compared with controls, Exudate volume ([3]; 50 mg/kg p.o.) | % Chance compared with controls, Number of cells ([3]; 50 mg/kg p.o.) |
| --- | --- | --- | --- | --- | --- | --- | --- | --- | --- | --- | --- | --- | --- |
| Cc1nccn1N=Cc1cc(C(C)(C)C)c(O)c(C(C)(C)C)c1 [B, 1-(4-hydroxy-3,5-di-tert.butylbenzylideneamino)-2-methylimidazole] | -0.77 ± 0.05 mL | 28.2 ± 1.4 g | 405 ± 126 mg/dL | -0.84 ± 0.12 mL | 35.3 ± 1.8 g | 75 ± 15 mg/dL | > 1000 mg/kg |  |  |  |  |  |  |
| CCCc1nccn1NCc1cc(C(C)(C)C)c(O)c(C(C)(C)C)c1 [E, 1-(4-hydroxy-3,5-di-tert.butylbenzylamino)-2-propylimidazole] |  |  |  |  |  |  |  | -39% | +4% | -73% | -21% |  |  |
| CC(C)(C)c1cc(C=Nn2ccnc2)cc(C(C)(C)C)c1O [C, 1-(4-hydroxy-3,5-di-tert.-butylbenzylideneamino)imidazole] |  |  |  | -0.92 ± 0.08 mL | 31.2 ± 2.0 g | 544 ± 97 mg/dL | > 1000 mg/kg |  |  |  |  |  |  |
| Cc1nccn1NCc1cc(C(C)(C)C)c(O)c(C(C)(C)C)c1 [D, 1-(4-hydroxy-3,5-di-tert.-butylbenzylamino)-2-methylimidazole] |  |  |  |  |  |  |  | -29% | -6% | -60% | -22% |  |  |
| CC(C)(C)c1cc(CNn2ccnc2)cc(C(C)(C)C)c1O [Compound A, 1-(4-Hydroxy-3,5-di-tert.butylbenzylamino)imidazole] |  |  |  | -0.18 ± 0.08 mL | 30.5 ± 1.2 g | 1040 ± 75 mg/dL | > 1000 mg/kg | -51% | -12% | -68% | -23% | -60% | -14% |
